Reference: patent US7608619B2, “Substituted oxazole compounds with analgesic activity” (Gruenenthal GmbH, priority 2005, dated 2009)

Target: T1, human μ-opiate receptor (Homo sapiens, UniProt P35372)
T1 construct: purchased Nen company, Zaventem, Belgium RB-HOM; host or cells: CHO-K1 cells (membrane preparation)
Experiment: Affinity for the human μ-opiate receptor ([3H]-naloxone displacement, SPA, CHO-K1 membrane preparation)
Settings: test substance 1 μmole/l; displacement of 1 nmole/l [3H]-naloxone; percentage inhibition of the specific binding; read-out: μ-opioid receptor, % inhibition [1 μM]
How it was run: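 [3H]-naloxone (1 nmol/l) displacement by SPA with WGA beads, using membranes of CHO-K1 cells expressing the receptor, in 50 mmol/l Tris-HCl with 0.05% azide and 0.06% BSA; 90 min at room temperature. Non-specific binding defined with 25 μmol/l naloxone. Value is % inhibition of specific binding at 1 μmol/l test compound.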

T1 sequence (P35372 whole entry): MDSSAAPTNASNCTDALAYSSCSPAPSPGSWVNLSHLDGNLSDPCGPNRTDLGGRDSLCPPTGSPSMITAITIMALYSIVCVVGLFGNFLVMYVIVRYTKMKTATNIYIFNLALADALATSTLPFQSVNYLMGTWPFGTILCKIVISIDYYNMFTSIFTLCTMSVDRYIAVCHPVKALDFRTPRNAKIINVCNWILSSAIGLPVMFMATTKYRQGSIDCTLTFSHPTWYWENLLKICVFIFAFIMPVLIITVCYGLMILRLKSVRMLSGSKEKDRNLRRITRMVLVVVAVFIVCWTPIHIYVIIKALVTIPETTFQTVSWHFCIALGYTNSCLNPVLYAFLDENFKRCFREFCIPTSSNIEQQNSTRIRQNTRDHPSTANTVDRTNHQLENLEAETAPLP

Compound | inhibition at 1 µM
CC1CCN(c2oc(C(CC3CCC(C(c4cccs4)N(C)C)CC3)N3CCCCC3)nc2Cc2ccccc2)CC1 (stereo not drawn) [compound 74, [(4-{2-[4-benzyl-5-(4-methylpiperidin-1-yl)-oxazol-2-yl]-2-piperidin-1-yl-ethyl}-cyclohexyl)-thiophen-2-yl-methyl]-dimethylamine] | 79%
CN(Cc1ccccc1)c1oc(C(CC2CCC(C(c3cccs3)N(C)C)CC2)N2CCCCC2)nc1Cc1ccccc1 (stereo not drawn) [compound 75, Benzyl-(4-benzyl-2-{2-[4-(dimethylaminothiophen-2-yl-methyl)-cyclohexyl]-1-piperidin-1-yl-ethyl}-oxazol-5-yl)-methylamine] | 90%
CN(C)C(c1cccs1)C1CCC(CC(c2nc(Cc3ccccc3)c(N3CCN(c4ccccc4)CC3)o2)N2CCCCC2)CC1 (stereo not drawn) [compound 76, [(4-{2-[4-benzyl-5-(4-phenyl-piperazin-1-yl)-oxazol-2-yl]-2-piperidin-1-yl-ethyl}-cyclohexyl)-thiophen-2-yl-methyl]-dimethylamine] | 94%
CCN(CC)C(CC1CCC(C(c2cccs2)N(C)C)CC1)c1nc(Cc2ccccc2)c(N2CCC(Cc3ccccc3)CC2)o1 (stereo not drawn) [compound 77, {1-[4-benzyl-5-(4-benzyl-piperidin-1-yl)-oxazol-2-yl]-2-[4-(dimethylamino-thiophen-2-yl-methyl)-cyclohexyl]-ethyl}-diethylamine] | 91%
CCN(CC)C(CC1CCC(C(c2cccs2)N(C)C)CC1)c1nc(Cc2ccccc2)c(N2CCN(Cc3ccccc3)CC2)o1 (stereo not drawn) [compound 78, {1-[4-benzyl-5-(4-benzyl-piperazin-1-yl)-oxazol-2-yl]-2-[4-(dimethylamino-thiophen-2-yl-methyl)-cyclohexyl]-ethyl}-diethylamine] | 100%
CCN(CC)C(CC1CCC(C(c2cccs2)N(C)C)CC1)c1nc(Cc2ccccc2)c(N2CCC(C)CC2)o1 (stereo not drawn) [compound 79, {1-[4-benzyl-5-(4-methylpiperidin-1-yl)-oxazol-2-yl]-2-[4-(dimethylamino-thiophen-2-yl-methyl)-cyclohexyl]-ethyl}-diethylamine] | 97%
CCN(CC)C(CC1CCC(C(c2cccs2)N(C)C)CC1)c1nc(Cc2ccccc2)c(N(C)Cc2ccccc2)o1 (stereo not drawn) [compound 80, Benzyl-(4-benzyl-2-{1-diethylamino-2-[4-(dimethylaminothiophen-2-yl-methyl)-cyclohexyl]-ethyl)-oxazol-5-yl)-methylamine] | 93%
CN(C)C(c1cccs1)C1CCC(CC(c2nc(Cc3ccccc3)c(N3CCC(Cc4ccccc4)CC3)o2)N2CCN(Cc3ccccc3)CC2)CC1 (stereo not drawn) [compound 81, ({4-[2-[4-benzyl-5-(4-benzyl-piperidin-1-yl)-oxazol-2-yl]-2-(4-benzyl-piperazin-1-yl)-ethyl]-cyclohexyl}-thiophen-2-yl-methyl)-dimethylamine] | 81%
CN(C)C(c1cccs1)C1CCC(CC(c2nc(Cc3ccccc3)c(N3CCN(Cc4ccccc4)CC3)o2)N2CCN(Cc3ccccc3)CC2)CC1 (stereo not drawn) [compound 82, ({4-[2-[4-benzyl-5-(4-benzylpiperazin-1-yl)-oxazol-2-yl]-2-(4-benzyl-piperazin-1-yl)-ethyl]-cyclohexyl}-thiophen-2-yl-methyl)-dimethylamine] | 83%
CC1CCN(c2oc(C(CC3CCC(C(c4cccs4)N(C)C)CC3)N3CCN(Cc4ccccc4)CC3)nc2Cc2ccccc2)CC1 (stereo not drawn) [compound 83, ({4-[2-[4-benzyl-5-(4-methylpiperidin-1-yl)-oxazol-2-yl]-2-(4-benzyl-piperazin-1-yl)-ethyl]-cyclohexyl}-thiophen-2-yl-methyl)-dimethylamine] | 97%
CN(Cc1ccccc1)c1oc(C(CC2CCC(C(c3cccs3)N(C)C)CC2)N2CCN(Cc3ccccc3)CC2)nc1Cc1ccccc1 (stereo not drawn) [compound 84, Benzyl-(4-benzyl-2-{1-(4-benzyl-piperazin-1-yl)-2-[4-(dimethylamino-thiophen-2-yl-methyl)-cyclohexyl]-ethyl}-oxazol-5-yl)-methylamine] | 88%
CN(C)C(c1cccs1)C1CCC(CC(c2nc(Cc3ccccc3)c(N3CCN(c4ccccc4)CC3)o2)N2CCN(Cc3ccccc3)CC2)CC1 (stereo not drawn) [compound 85, ({4-[2-[4-benzyl-5-(4-phenyl-piperazin-1-yl)-oxazol-2-yl]-2-(4-benzyl-piperazin-1-yl)-ethyl]-cyclohexyl}-thiophen-2-yl-methyl)-dimethylamine] | 91%
CN(CCc1ccccc1)c1oc(C(CC2CCC(C(c3ccc(Cl)cc3)N(C)C)CC2)N2CCCCC2)nc1Cc1ccccc1 (stereo not drawn) [compound 86, [4-benzyl-2-(2-{4-[(4-chlorophenyl)-dimethylaminomethyl]-cyclohexyl}-1-piperidin-1-yl-ethyl)-oxazol-5-yl]-methylphenethylamine] | 63%
CCN(CC)c1oc(C(CC2CCC(C(c3ccc(Cl)cc3)N(C)C)CC2)N2CCCCC2)nc1Cc1ccccc1 (stereo not drawn) [compound 87, [4-benzyl-2-(2-{4-[(4-chlorophenyl)-dimethylaminomethyl]-cyclohexyl}-1-piperidin-1-yl-ethyl)-oxazol-5-yl]-diethylamine] | 64%
CCN(CC)C(CC1CCC(C(c2ccc(Cl)cc2)N(C)C)CC1)c1nc(Cc2ccccc2)c(N2CC(C)CC(C)C2)o1 (stereo not drawn) [compound 88, (1-[4-benzyl-5-(3,5-dimethylpiperidin-1-yl)-oxazol-2-yl]-2-{4-[(4-chlorophenyl)-dimethylaminomethyl]-cyclohexyl}-ethyl)-diethylamine] | 79%
CCN(CC)C(CC1CCC(C(c2ccc(Cl)cc2)N(C)C)CC1)c1nc(Cc2ccccc2)c(N(C)CCc2ccccc2)o1 (stereo not drawn) [compound 89, [4-benzyl-2-(2-{4-[(4-chlorophenyl)-dimethylaminomethyl]-cyclohexyl}-1-diethylaminoethyl)-oxazol-5-yl]-methyl-phenethylamine] | 87%
CCN(CC)c1oc(C(CC2CCC(C(c3ccc(Cl)cc3)N(C)C)CC2)N(CC)CC)nc1Cc1ccccc1 (stereo not drawn) [compound 90, [4-benzyl-2-(2-{4-[(4-chlorophenyl)-dimethylaminomethyl]-cyclohexyl}-1-diethylaminoethyl)-oxazol-5-yl]-diethylamine] | 89%
CCN(CC)C(CC1CCC(C(c2ccc(Cl)cc2)N(C)C)CC1)c1nc(Cc2ccccc2)c(N2CCSCC2)o1 (stereo not drawn) [compound 91, (1-(4-benzyl-5-thiomorpholin-4-yl-oxazol-2-yl)-2-{4-[(4-chlorophenyl)-dimethylaminomethyl]-cyclohexyl}-ethyl)-diethylamine] | 75%
CN(C)C(c1ccc(Cl)cc1)C1CCC(CC(c2nc(Cc3ccccc3)c(N3CCSCC3)o2)N(C)c2ccccc2)CC1 (stereo not drawn) [compound 92, (1-(4-benzyl-5-thiomorpholin-4-yl-oxazol-2-yl)-2-{4-[(4-chlorophenyl)-dimethylaminomethyl]-cyclohexyl}-ethyl)-methylphenylamine] | 87%
CN(CCc1ccccc1)c1oc(C(CC2CCC(C(c3ccc(Cl)cc3)N(C)C)CC2)N2CCN(Cc3ccccc3)CC2)nc1Cc1ccccc1 (stereo not drawn) [compound 93, [4-Benzyl-2-(1-(4-benzylpiperazin-1-yl)-2-{4-[(4-chlorophenyl)-dimethylaminomethyl]-cyclohexyl}-ethyl)-oxazol-5-yl]-methylphenethyl-amine] | 66%
CCN(CC)c1oc(C(CC2CCC(C(c3ccc(Cl)cc3)N(C)C)CC2)N2CCN(Cc3ccccc3)CC2)nc1Cc1ccccc1 (stereo not drawn) [compound 94, [4-benzyl-2-(1-(4-benzylpiperazin-1-yl)-2-{4-[(4-chlorophenyl)-dimethylaminomethyl]-cyclohexyl}-ethyl)-oxazol-5-yl]-diethylamine] | 74%
CN(CCc1ccccc1)c1oc(C(CC2CCC(C(c3ccc(F)cc3)N(C)C)CC2)N2CCCCC2)nc1Cc1ccccc1 (stereo not drawn) [compound 95, [4-benzyl-2-(2-{4-[dimethylamino-(4-fluorophenyl)-methyl]-cyclohexyl}-1-piperidin-1-yl-ethyl)-oxazol-5-yl]-methylphenethylamine] | 65%
CCN(CC)C(CC1CCC(C(c2ccc(F)cc2)N(C)C)CC1)c1nc(Cc2ccccc2)c(N2CC(C)CC(C)C2)o1 (stereo not drawn) [compound 96, (1-[4-benzyl-5-(3,5-dimethylpiperidin-1-yl)-oxazol-2-yl]-2-{4-[dimethylamino-(4-fluorophenyl)-methyl]-cyclohexyl}-ethyl)-diethylamine] | 80%
CCN(CC)C(CC1CCC(C(c2ccc(F)cc2)N(C)C)CC1)c1nc(Cc2ccccc2)c(N(C)CCc2ccccc2)o1 (stereo not drawn) [compound 97, [4-benzyl-2-(1-diethylamino-2-{4-[dimethylamino-(4-fluorophenyl)-methyl]-cyclohexyl}-ethyl)-oxazol-5-yl]-methylphenethylamine] | 85%
CCN(CC)c1oc(C(CC2CCC(C(c3ccc(F)cc3)N(C)C)CC2)N(CC)CC)nc1Cc1ccccc1 (stereo not drawn) [compound 98, [4-benzyl-2-(1-diethylamino-2-{4-[dimethylamino-(4-fluorophenyl)-methyl]-cyclohexyl}-ethyl)-oxazol-5-yl]-diethylamine] | 77%
CCN(CC)C(CC1CCC(C(c2ccc(F)cc2)N(C)C)CC1)c1nc(Cc2ccccc2)c(N2CCSCC2)o1 (stereo not drawn) [compound 99, (1-(4-benzyl-5-thiomorpholin-4-yl-oxazol-2-yl)-2-{4-[dimethylamino-(4-fluorophenyl)-methyl]-cyclohexyl}-ethyl)-diethylamine] | 62%
CCN(CC)C(CC1CCC(C(c2ccc(F)cc2)N(C)C)CC1)c1nc(Cc2ccccc2)c(N2CCCC(C)C2)o1 (stereo not drawn) [compound 100, (1-[4-benzyl-5-(3-methylpiperidin-1-yl)-oxazol-2-yl]-2-{4-[dimethylamino-(4-fluorophenyl)-methyl]-cyclohexyl}-ethyl)-diethylamine] | 86%
